From patent US12410208B2, “(2-acetamidyl)thio-beta-D-galactopyranoside derivatives” (Idorsia Pharmaceuticals Ltd, priority 2020, dated 2025)
Read-outs that look alike come from different tables or passages of the source.

Legend:
human Gal-1 (hGal-1) = human Gal-1 (hGal-1) (Homo sapiens, UniProt P09382); assay: Competitive binding assay: biotinylated hGal-1 binding to microplate-adsorbed asialofetuin (ASF), spectrophotometric; settings: hGal-1 binding to asialofetuin; Table 15; R and S epimers of selected Examples also listed; read-out: IC50 (Galectin-1 inhibition)
Summary of the method: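 Spectrophotometric competition readout with ABTS after streptavidin-peroxidase (80 ng/mL, 1 h, 4 °C) detection of bound biotinylated hGal-1.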

[1] = biological target: biotinylated human Gal-3 (hGal-3) (Homo sapiens, UniProt P17931); assay: Competitive binding assay: biotinylated hGal-3 binding to microplate-adsorbed asialofetuin (ASF), spectrophotometric
Summary of the method: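 Serially diluted compounds competed with asialofetuin on the plate for biotinylated human Gal-3 during a 3 h incubation at 4° C. Streptavidin-peroxidase with ABTS gave the spectrophotometric signal. IC50 values were averaged over repeat runs.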

[2] = Table 12, hGal-3, read-out: IC50 (Gal-3 inhibition)
[3] = Table 9, hGal-3, read-out: IC50 (Gal-3 inhibition)
[4] = Gal-3 inhibition, Table 5, read-out: IC50
[5] = Table 8, hGal-3, read-out: IC50 (Gal-3 inhibition)
[6] = Table 10, hGal-3, read-out: IC50 (Gal-3 inhibition)

Chain of human Gal-1 (hGal-1) (P09382 whole entry): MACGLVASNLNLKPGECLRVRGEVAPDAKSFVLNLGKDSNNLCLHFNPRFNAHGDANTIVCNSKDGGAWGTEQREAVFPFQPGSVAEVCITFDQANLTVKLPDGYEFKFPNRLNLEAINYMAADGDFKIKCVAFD
Chain of biotinylated human Gal-3 (hGal-3) (P17931 whole entry): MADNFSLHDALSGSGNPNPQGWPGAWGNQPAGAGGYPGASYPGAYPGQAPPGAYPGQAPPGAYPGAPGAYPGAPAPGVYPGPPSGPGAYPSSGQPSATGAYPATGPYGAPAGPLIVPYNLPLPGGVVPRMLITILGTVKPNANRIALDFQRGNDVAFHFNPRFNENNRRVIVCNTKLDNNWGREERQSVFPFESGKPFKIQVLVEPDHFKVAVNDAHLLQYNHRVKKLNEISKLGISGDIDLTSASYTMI

Row | IC50 (human Gal-1 (hGal-1)) | Compound | other results
1 | 8780 nM | CO[C@@H]1[C@@H](n2cc(-c3cc(F)c(F)c(F)c3)nn2)[C@@H](O)[C@@H](CO)O[C@H]1S[C@@H](C(=O)N(C)CC(C)(C)F)C1(O)CCC(F)(F)CC1 [Example 2.44.222R.I., (R)-2-(4,4-Difluoro-1-hydroxycyclohexyl)-N-(2-fluoro-2-methylpropyl)-2-(((2S,3R,4S,5R,6R)-5-hydroxy-6-(hydroxymethyl)-3-methoxy-4-(4-(3,4,5-trifluorophenyl)-1H-1,2,3-triazol-1-yl)tetrahydro-2H-pyran-2-yl)thio)-N-methylacetamide] | IC50 [1, 2]: 7900 nM
2 | 190 nM | CO[C@@H]1[C@@H](n2cc(-c3cc(F)c(F)c(F)c3)nn2)[C@@H](O)[C@@H](CO)O[C@H]1SC(C(=O)NC(C)C)C1(O)CCC(F)(F)CC1 (stereo partly drawn) [Example 2.44.251.I., 2-(4,4-Difluoro-1-hydroxycyclohexyl)-2-(((2S,3R,4S,5R,6R)-5-hydroxy-6-(hydroxymethyl)-3-methoxy-4-(4-(3,4,5-trifluorophenyl)-1H-1,2,3-triazol-1-yl)tetrahydro-2H-pyran-2-yl)thio)-N-isopropylacetamide] | IC50 [1, 2]: 90 nM
3 | 830 nM | CO[C@@H]1[C@@H](n2cc(-c3cc(F)c(F)c(F)c3)nn2)[C@@H](O)[C@@H](CO)O[C@H]1SC(C(=O)NCCC(C)(C)C)C1(O)CCC(F)(F)CC1 (stereo partly drawn) [Example 2.44.252.I., 2-(4,4-Difluoro-1-hydroxycyclohexyl)-N-(3,3-dimethylbuty1)-2-(((2S,3R,4S,5R,6R)-5-hydroxy-6-(hydroxymethyl)-3-methoxy-4-(4-(3,4,5-trifluorophenyl)-1H-1,2,3-triazol-1-yl)tetrahydro-2H-pyran-2-yl)thio)acetamide] | IC50 [1, 2]: 320 nM
4 | 150 nM | CN(CCC(C)(C)C)C(=O)C(S[C@@H]1O[C@H](CO)[C@H](O)[C@H](n2cc(-c3cc(F)c(F)c(F)c3)nn2)[C@H]1O)C1(O)CCC(F)(F)CC1 (stereo partly drawn) [Example 2.44.225., 2-(4,4-Difluoro-1-hydroxycyclohexyl)-2-(((2S,3R,4S,5R,6R)-3,5-dihydroxy-6-(hydroxymethyl)-4-(4-(3,4,5-trifluorophenyl)-1H-1,2,3-triazol-1-yl)tetrahydro-2H-pyran-2-yl)thio)-N-(3,3-dimethylbutyl)-N-methylacetamide] | IC50 [1, 4]: 70 nM
5 | 130 nM | CCN(C)C(=O)C(S[C@@H]1O[C@H](CO)[C@H](O)[C@H](n2cc(-c3ccc(F)c(F)c3)nn2)[C@H]1O)C1(O)CCOCC1 (stereo partly drawn) [Example 16.41.203., 2-(((2S,3R,4S,5R,6R)-4-(4-(3,4-Difluorophenyl)-1H-1,2,3-triazol-1-yl)-3,5-dihydroxy-6-(hydroxymethyl)tetrahydro-2H-pyran-2-yl)thio)-N-ethyl-2-(4-hydroxytetrahydro-2H-pyran-4-yl)-N-methylacetamide] | IC50 ([1]; Table 11, hGal-3, read-out: IC50 (Gal-3 inhibition)): 60 nM
6 | 3050 nM | CCN(C)C(=O)C(S[C@@H]1O[C@H](CO)[C@H](O)[C@H](n2cc(-c3cc(F)c(F)c(F)c3)nn2)[C@H]1O)C(O)c1ccn(C)n1 (stereo partly drawn) [Example 2.65.203., 2-(((2S,3R,4S,5R,6R)-3,5-dihydroxy-6-(hydroxymethyl)-4-(4-(3,4,5-trifluorophenyl)-1H-1,2,3-triazol-1-yl)tetrahydro-2H-pyran-2-yl)thio)-N-ethyl-3-hydroxy-N-methyl-3-(1-methyl-1H-pyrazol-3-yl)propanamide] | IC50 ([1]; Gal-3 inhibition, Table 7, read-out: IC50): 650 nM
7 | 110 nM | CCN(C)C(=O)C(S[C@@H]1O[C@H](CO)[C@H](O)[C@H](n2cc(-c3cc(F)c(F)c(F)c3)nn2)[C@H]1O)C1(O)CCN(S(C)(=O)=O)CC1 (mixture of isomers) [Example 2.47.203., 2-(((2S,3R,4S,5R,6R)-3,5-Dihydroxy-6-(hydroxymethyl)-4-(4-(3,4,5-trifluorophenyl)-1H-1,2,3-triazol-1-yl)tetrahydro-2H-pyran-2-yl)thio)-N-ethyl-2-(4-hydroxy-1-(methylsulfonyl)piperidin-4-yl)-N-methylacetamide] | IC50 [1, 5]: 30 nM
8 | 200 nM | CO[C@@H]1[C@@H](n2cc(-c3cc(F)c(F)c(F)c3)nn2)[C@@H](O)[C@@H](CO)O[C@H]1SC(C(=O)N1CCC(F)(F)CC1)C1(O)CCC2(CC1)COC2 (stereo partly drawn) [Example 2.70.226.I., 1-(4,4-Difluoropiperidin-1-yl)-2-(((2S,3R,4S,5R,6R)-5-hydroxy-6-(hydroxymethyl)-3-methoxy-4-(4-(3,4,5-trifluorophenyl)-1H-1,2,3-triazol-1-yl)tetrahydro-2H-pyran-2-yl)thio)-2-(7-hydroxy-2-oxaspiro[3.5]nonan-7-yl)ethan-1-one] | IC50 ([1]; Table 13, hGal-3, read-out: IC50 (Gal-3 inhibition)): 110 nM
9 | 280 nM | CCN(Cc1ccccc1)C(=O)C(S[C@@H]1O[C@H](CO)[C@H](O)[C@H](n2cc(-c3cc(F)c(F)c(F)c3)nn2)[C@H]1OC)C1(O)CCC(F)(F)CC1 (stereo partly drawn) [Example 2.44.240.I.] | IC50 [1, 6]: 40 nM

More lines, now with the values behind:

Row | Compound | IC50 (human Gal-1 (hGal-1)) | other results
10 | CN(C(=O)[C@H](S[C@@H]1O[C@H](CO)[C@H](O)[C@H](n2cc(-c3cc(F)c(F)c(F)c3)nn2)[C@H]1O)C1(O)CCOCC1)c1cccnc1 [Example 2.41.234R] | 10900 nM | IC50 [1, 3]: 7800 nM
11 | (R)-N-Cyclobutyl-2-(4,4-difluoro-1-hydroxycyclohexyl)-2-(((2S,3R,4S,5R,6R)-3,5-dihydroxy-6-(hydroxymethyl)-4-(4-(3,4,5-trifluorophenyl)-1H-1,2,3-triazol-1-yl)tetrahydro-2H-pyran-2-yl)thio)-N-methylacetamide [Example 2.44.206R.] | 1480 nM | IC50 [1, 4]: 440 nM
12 | CN(CC1CC1)C(=O)[C@H](S[C@@H]1O[C@H](CO)[C@H](O)[C@H](n2cc(-c3cc(F)c(F)c(F)c3)nn2)[C@H]1O)C1(O)CC(F)(F)C1 [Example 2.33.218R., (R)-N-(Cyclopropylmethyl)-2-(3,3-difluoro-1-hydroxycyclobutyl)-2-(((2S,3R,4S,5R,6R)-3,5-dihydroxy-6-(hydroxymethyl)-4-(4-(3,4,5-trifluorophenyl)-1H-1,2,3-triazol-1-yl)tetrahydro-2H-pyran-2-yl)thio)-N-methylacetamide] | 580 nM | IC50 [1, 4]: 440 nM
13 | (2R,3R,4S,5R,6S)-2-(Acetoxymethyl)-6-(((R)-2-(ethyl(methyl)amino)-1-(3-hydroxy-1-(methoxycarbonyl)azetidin-3-yl)-2-oxoethyl)thio)-4-(4-(3,4,5-trifluorophenyl)-1H-1,2,3-triazol-1-yl)tetrahydro-2H-pyran-3,5-diyl diacetate [Example 2.58.203R.] | 1180 nM | IC50 [1, 5]: 450 nM
14 | (S)-2-(((2S,3R,4S,5R,6R)-3,5-Dihydroxy-6-(hydroxymethyl)-4-(4-(3,4,5-trifluorophenyl)-1H-1,2,3-triazol-1-yl)tetrahydro-2H-pyran-2-yl)thio)-2-(1-hydroxycyclohexyl)-N-methyl-N-(pyridin-2-ylmethyl)acetamide [Example 2.39.224S.] | 70 nM | IC50 [1, 4]: 60 nM
15 | CC(C)CN(C)C(=O)[C@H](S[C@@H]1O[C@H](CO)[C@H](O)[C@H](n2cc(-c3cc(F)c(F)c(F)c3)nn2)[C@H]1O)C1(O)CCOCC1 [Example 2.41.200R., (R)-2-(((2S,3R,4S,5R,6R)-3,5-Dihydroxy-6-(hydroxymethyl)-4-(4-(3,4,5-trifluorophenyl)-1H-1,2,3-triazol-1-yl)tetrahydro-2H-pyran-2-yl)thio)-2-(4-hydroxytetrahydro-2H-pyran-4-yl)-N-isobutyl-N-methylacetamide] | 10900 nM | IC50 ([1]; Gal-3 inhibition, Table 2, read-out: IC50): 4010 nM
16 | CCN(C(=O)C(S[C@@H]1O[C@H](CO)[C@H](O)[C@H](n2cc(-c3cc(F)c(F)c(F)c3)nn2)[C@H]1O)C1(O)CCOCC1)c1ccccc1 (stereo partly drawn) [Example 2.41.232., 2-(((2S,3R,4S,5R,6R)-3,5-Dihydroxy-6-(hydroxymethyl)-4-(4-(3,4,5-trifluorophenyl)-1H-1,2,3-triazol-1-yl)tetrahydro-2H-pyran-2-yl)thio)-N-ethyl-2-(4-hydroxytetrahydro-2H-pyran-4-yl)-N-phenylacetamide] | 60 nM | IC50 [1, 3]: 90 nM
17 | CCN(CC1CCOCC1)C(=O)C(S[C@@H]1O[C@H](CO)[C@H](O)[C@H](n2cc(-c3cc(F)c(F)c(F)c3)nn2)[C@H]1OC)C1(O)CCC(F)(F)CC1 (stereo partly drawn) [Example 2.44.214.I.] | 20 nM | IC50 [1, 6]: 30 nM
18 | CN(CC(F)(F)F)C(=O)C(S[C@@H]1O[C@H](CO)[C@H](O)[C@H](n2cc(-c3cc(F)c(F)c(F)c3)nn2)[C@H]1O)C1(O)CCOCC1 (stereo partly drawn) [Example 2.41.219., 2-(((2S,3R,4S,5R,6R)-3,5-Dihydroxy-6-(hydroxymethyl)-4-(4-(3,4,5-trifluorophenyl)-1H-1,2,3-triazol-1-yl)tetrahydro-2H-pyran-2-yl)thio)-2-(4-hydroxytetrahydro-2H-pyran-4-yl)-N-methyl-N-(2,2,2-trifluoroethyl)acetamide] | 210 nM | IC50 [1, 4]: 110 nM
